Experiments:
[1] = Growth of graft Ienssen sarcoma in rats; assay type: in vivo; conditions: rat, in vivo, ip, rats with Ienssen sarcoma, repeated intraperitoneal administration; read-out: Maximum tolerable dose (MTD)
Text: (§1) The antitumor activity has been studied on white rats weighing 110-130 g, as well as on white noninbred and inbred mice weighing 17-21 g with ligated tumors. The treatment is started 5-7 days transplanting of solid tumors and the following day after the transplanting of leukotic strains. Use has been made of the following transplantable strains of the tumors:
(§2) (1) rats: Ienssen's sarcoma, sarcoma 45, sarcoma M-1, sarcoma 536;
(§3) The compounds of the general formula (I), wherein X represents Cl^- (compound 1), Br^- (compound 2) are well-soluble in an isotonic solution of sodium chloride and they are administered intraperitoneally. The doses of the compounds have been calculated in mg per kg of the animal bodyweight.

Ienssen's sarcoma = test: Growth of graft Ienssen sarcoma in rats; assay type: in vivo; conditions: for Ch/T chemotherapeutical index (ratio of MTD to minimum effective dose): Ienssen sarcoma
Text: as §1, §2, §3

[2] = Growth of graft sarcoma 536 in rats; assay type: in vivo; conditions: rat, in vivo, ip, rats with sarcoma 536, repeated intraperitoneal administration; read-out: Maximum tolerable dose (MTD)
Text: as §1, §2, §3

sarcoma 536 = test: Growth of graft sarcoma 536 in rats; assay type: in vivo; conditions: rats
Text: as §1, §2, §3

[3] = Growth of graft sarcoma M-1 in rats; assay type: in vivo; conditions: rat, in vivo, ip, rats with sarcoma M-1, repeated intraperitoneal administration; read-out: Maximum tolerable dose (MTD)
Text: as §1, §2, §3

sarcoma M-1 = test: Growth of graft sarcoma M-1 in rats; assay type: in vivo; conditions: rats, 5 injections
Text: as §1, §2, §3

[4] = Growth of graft sarcoma 180 in mice; assay type: in vivo, noninbred white mice; conditions: mouse, in vivo, ip; mice with sarcoma 180, repeated intraperitoneal administration; read-out: Maximum tolerable dose (MTD)
Text: as §1
(§4) (2) noninbred white mice: sarcoma 180, sarcoma AK, sarcoma 37, carcinoma HK;
as §3

sarcoma 180 = test: Growth of graft sarcoma 180 in mice; assay type: in vivo, noninbred white mice; conditions: mice; for It, % tumor growth suppression index / Change in the animal body weight, test: 6 injections
Text: as §1, §4, §3

[5] = Growth of graft sarcoma 37 in mice; assay type: in vivo, noninbred white mice; conditions: mouse, in vivo, ip; mice with sarcoma 37, repeated intraperitoneal administration; read-out: Maximum tolerable dose (MTD)
Text: as §1, §4, §3

sarcoma 37 = test: Growth of graft sarcoma 37 in mice; assay type: in vivo, noninbred white mice; conditions: mice
Text: as §1, §4, §3

[6] = Growth of graft carcinoma HK in mice; assay type: in vivo, noninbred white mice; conditions: mouse, in vivo, ip; mice with carcinoma HK, repeated intraperitoneal administration; read-out: Maximum tolerable dose (MTD)
Text: as §1, §4, §3

carcinoma HK = test: Growth of graft carcinoma HK in mice; assay type: in vivo, noninbred white mice; conditions: mice, 6 injections
Text: as §1, §4, §3

leukemia P-388 = test: Life span of mice with transplantable leukemia P-388; assay type: in vivo, inbred mice
Text: as §1
(3) inbred mice: leukemia La, leukemia L1210 and P-388.
The activity of compounds relative to leukosis has been assessed by the life span (It) of treated animals as compared to the control ones. It --index of suppression of leukosis development is calculated by the formula: [formula]

[7] = Toxicity on single and repeated administration to mice; assay type: in vivo
Method: (3) acute toxicity of the compounds upon a single and repeated administration to white noninbred mice places into standard cages with 8 animals in each.
In the investigation of toxic properties of the compounds according to the present invention there has been determined the absolutely lethal dose (DL95), average lethal dose (DL50) and MTD. For compounds 1 and 2 there were determined DL95 and DL50 on healthy white mice with the body mass of 18-21 g at a single and repeated (once a day, daily for 7 days) intraperitoneal administration.

[8] = hypodermally, 68.6 mg/kg, 5 injections
[9] = intramuscularly, 55.5 mg/kg, 6 injections
[10] = rats, 1 mg/kg intraperitoneally, 7 injections
[11] = rats, 4 mg/kg intraperitoneally, 6 injections
[12] = rats, 6 mg/kg intraperitoneally, 6 injections
[13] = rats, 10 mg/kg intraperitoneally, 7 injections
[14] = rats, 20 mg/kg intraperitoneally, 7 injections
[15] = rats, 40 mg/kg intraperitoneally, 5 injections
[16] = rats, 90 mg/kg intraperitoneally, 7 injections
[17] = rats, 125 mg/kg intraperitoneally, 7 injections
[18] = rats, per os, 142 mg/kg, 7 injections
[19] = 50 mg/kg intraperitoneally, 7 injections
[20] = 70 mg/kg intraperitoneally, 6 injections
[21] = 75 mg/kg intraperitoneally, 7 injections
[22] = 250 mg/kg intraperitoneally (MTD)
[23] = mice with transplantable leukemia P-388
[24] = mice, repeated intraperitoneal administration (once a day, daily for 7 days)
[25] = mice, repeated intraperitoneal administration (once a day, daily for 7 days), listed as Preparation of the invention
[26] = mice, single intraperitoneal administration

## O=C(CCBr)N1CC[N+]2(CC1)CC[N+]1(CCN(C(=O)CCBr)CC1)CC2 [Compound 1, N,N^3 -di-(β-bromopropionyl)-N^1,N^2 -dispirotripiperazinium dichloride]
[1]
  MTD: 160 mg/kg
Ienssen's sarcoma
  Ch/T chemotherapeutical index (ratio of MTD to minimum effective dose): 60
Ienssen's sarcoma; listed as Preparation of the invention
  Ch/T chemotherapeutical index (ratio of MTD to minimum effective dose): 60
Ienssen's sarcoma; [8]
  Change in the bodyweight of animals, test: -6 g
  It, %: +86%
Ienssen's sarcoma; [9]
  Change in the bodyweight of animals, test: -11 g
  It, %: +78%
Ienssen's sarcoma; [10]
  Change in the animal body weight, test: -2 g
  It, % tumor growth suppression index: 0%
Ienssen's sarcoma; rats, 2 mg/kg intraperitoneally, 6 injections
  Change in the animal body weight, test: -1 g
Ienssen's sarcoma; [11]
  Change in the animal body weight, test: 0 g
  It, % tumor growth suppression index: +81%
Ienssen's sarcoma; [12]
  Change in the animal body weight, test: +10 g
  It, % tumor growth suppression index: +80%
Ienssen's sarcoma; [13]
  Change in the animal body weight, test: +4 g
  It, % tumor growth suppression index: +93%
Ienssen's sarcoma; [14]
  Change in the animal body weight, test: +30 g
  It, % tumor growth suppression index: +98%
Ienssen's sarcoma; [15]
  Change in the animal body weight, test: +20 g
  It, % tumor growth suppression index: +85%
Ienssen's sarcoma; [16]
  Change in the animal body weight, test: +6 g
  It, % tumor growth suppression index: +86%
Ienssen's sarcoma; [17]
  Change in the animal body weight, test: +4 g
  It, % tumor growth suppression index: +89%
Ienssen's sarcoma; rats, 160 mg/kg intraperitoneally (MTD), 7 injections
  Change in the animal body weight, test: -12 g
Ienssen's sarcoma; [18]
  Change in the bodyweight of animals, test: -15 g
  It, %: +55%
Ienssen's sarcoma; wider than prospidin
  range of therapeutical action as compared to prospidin: 2.5 fold
[2]
  MTD: 140 mg/kg
Sarcoma 536
  tumor growth suppression class, Sarcoma 536: ++ (tumor growth suppression by 80-95%)
Sarcoma 536; [19]
  Change in the animal body weight, test: -15 g
  It, % tumor growth suppression index: +45%
Sarcoma 536; [20]
  Change in the animal body weight, test: -22 g
  It, % tumor growth suppression index: +55%
Sarcoma 536; 140 mg/kg intraperitoneally (MTD), 6 injections
  Change in the animal body weight, test: -32 g
Sarcoma 536; 140 mg/kg intraperitoneally (MTD), 6 injections, listed as preparation of the invention, 140 mg/kg
  It, % tumor growth suppression index: 78%
[3]
  MTD: 111 mg/kg
Sarcoma M-1; 90 mg/kg intraperitoneally
  Change in the animal body weight, test: +7 g
  It, % tumor growth suppression index: +96%
Sarcoma M-1; 111 mg/kg intraperitoneally (MTD)
  Change in the animal body weight, test: +4 g
[4]
  MTD: 262 mg/kg
Sarcoma 180
  tumor growth suppression class, Sarcoma 180: ++ (tumor growth suppression by 80-95%)
Sarcoma 180; 25 mg/kg intraperitoneally
  It, % tumor growth suppression index: +42%
Sarcoma 180; 75 mg/kg intraperitoneally
  Change in the animal body weight, test: -4 g
Sarcoma 180; 75 mg/kg intraperitoneally, 75 mg/kg
  It, % tumor growth suppression index: +74%
Sarcoma 180; 75 mg/kg intraperitoneally, listed as preparation of the invention, 75 mg/kg
  It, % tumor growth suppression index: 74%
Sarcoma 180; 262 mg/kg intraperitoneally (MTD)
  Change in the animal body weight, test: -6 g
[5]
  MTD: 277 mg/kg
Sarcoma 37; [21]
  Change in the animal body weight, test: -2 g
  It, % tumor growth suppression index: +74%
Sarcoma 37; 150 mg/kg intraperitoneally, 5 injections
  It, % tumor growth suppression index: +53%
Sarcoma 37; 277 mg/kg intraperitoneally (MTD), 6 injections
  Change in the animal body weight, test: -4 g
[6]
  MTD: 250 mg/kg
Carcinoma HK; 125 mg/kg intraperitoneally
  Change in the animal body weight, test: -3 g
  It, % tumor growth suppression index: +42%
Carcinoma HK; [22]
  Change in the animal body weight, test: -4 g
  It, % tumor growth suppression index: +86%
Leukemia P-388; leukemia P-388
  extension of life span as compared to the control, factor: 2
Leukemia P-388; [23]
  It, % index of suppression of leukosis development: 103%
  Life span: 19.7 ± 0.2 days
[7]; less toxic than prospidin, DL50 single administration to mice
  toxicity in comparison with prospidin: 2 times
[7]; mice, intraperitoneal administration
  Ik index of toxic effect cumulation: 82
[7]; [24]
  DL50 (average lethal dose): 444 mg/kg
  DL95 (absolutely lethal dose): 577 mg/kg
[7]; [25]
  DL50 (average lethal dose): 444 mg/kg
  DL95 (absolutely lethal dose): 577 mg/kg
[7]; [26]
  DL50 (average lethal dose): 1,924 mg/kg
  DL95 (absolutely lethal dose): 2,272 mg/kg
[7]; mice, single intraperitoneal administration, listed as Preparation of the invention
  DL95 (absolutely lethal dose): 2272 mg/kg
[7]; mice, single intraperitoneal administration, listed as preparation according to the present invention
  DL50 (average lethal dose): 1,924 mg/kg
[7]; mouse, in vivo, ip, mice, single intraperitoneal administration, read-out: DL50 (average lethal dose)
  LD50: 1920 mg/kg
[7]; mouse, in vivo, ip, repeated intraperitoneal administration, read-out: MTD
  MTD: 149 mg/kg

— US4481201A, “Pharmaceutical composition containing N,N^3 -di-(β-bromopropionyl)-N^1,N^2 -dispirotripiperazinium dichloride” (Vsesojuzny Nauchno-Issledovatelsky Khimoko-Farmasevtichesky …, priority 1981, dated 1984)
